# Test results from ChEMBL document CHEMBL1152687, “Synthesis and biological evaluation of the metabolites of 2-(1-{3-[(6-chloronaphthalen-2-yl)sulfonyl]propanoyl}piperidin-4-yl)-5-methyl-1,2-dihydro-3H-imidazo[1,5-c]imidazol-3-one” (Bioorg Med Chem, 2009).
# Columns and labels:
# [1] = biological target: Coagulation factor X (Homo sapiens, UniProt P00742); assay: Inhibition of human factor 10a by para-nitroanilide release assay
# [2] = Plasma concentration in cynomolgus monkey at 1 mg/kg, po after 10 hrs; assay type: ADME, organism-based, Macaca fascicularis; parameters: dose 1 mg/kg, route oral
# [3] = AUC (0 to 10 hrs) in cynomolgus monkey at 1 mg/kg, po; assay type: ADME, organism-based, Macaca fascicularis; parameters: time < 10 hr, dose 1 mg/kg, route oral; details: plasma
# [4] = Plasma concentration in cynomolgus monkey at 1 mg/kg, po after 2 hrs; assay type: ADME, organism-based, Macaca fascicularis; parameters: dose 1 mg/kg, route oral
# [5] = Plasma concentration in cynomolgus monkey at 1 mg/kg, po after 4 hrs; assay type: ADME, organism-based, Macaca fascicularis; parameters: dose 1 mg/kg, route oral
# [6] = Plasma concentration in cynomolgus monkey at 1 mg/kg, po after 1 hr; assay type: ADME, organism-based, Macaca fascicularis; parameters: dose 1 mg/kg, route oral
# [7] = biological target: Plasminogen (Homo sapiens, UniProt P00747); assay: Inhibition of human plasmin by para-nitroanilide release assay
# [8] = Cmax in cynomolgus monkey at 1 mg/kg, po; assay type: ADME, organism-based, Macaca fascicularis; parameters: dose 1 mg/kg, route oral; details: in vivo
# [9] = Total clearance in cynomolgus monkey at 0.1 mg/kg, iv; assay type: ADME, organism-based, Macaca fascicularis; parameters: dose 0.1 mg/kg, route intravenous; details: in vivo
# [10] = Oral bioavailability in cynomolgus monkey at 1 mg/kg, po; assay type: ADME, organism-based, Macaca fascicularis; details: in vivo
# [11] = Volume of distribution at steady state in cynomolgus monkey at 0.1 mg/kg, iv; assay type: ADME, organism-based, Macaca fascicularis; parameters: dose 0.1 mg/kg, route intravenous; details: in vivo, read-out: Vdss
# [12] = biological target: Tissue-type plasminogen activator (Homo sapiens, UniProt P00750); assay: Inhibition of human tissue plasminogen activator by para-nitroanilide release assay
# [13] = biological target: Trypsin (Homo sapiens, UniProt P07477+P07478+P35030); assay: Inhibition of human trypsin by para-nitroanilide release assay; assay type: protein assay
# [14] = AUC in cynomolgus monkey at 1 mg/kg, po; assay type: ADME, organism-based, Macaca fascicularis; parameters: dose 1 mg/kg, route oral; details: plasma
# [15] = Mean residence time in cynomolgus monkey at 1 mg/kg, po; assay type: ADME, organism-based, Macaca fascicularis; parameters: dose 1 mg/kg, route oral; details: in vivo
# [16] = biological target: Prothrombin (Homo sapiens, UniProt P00734); assay: Inhibition of human thrombin by para-nitroanilide release assay
# Coagulation factor X, sequence (P00742 41-179 limits assumed): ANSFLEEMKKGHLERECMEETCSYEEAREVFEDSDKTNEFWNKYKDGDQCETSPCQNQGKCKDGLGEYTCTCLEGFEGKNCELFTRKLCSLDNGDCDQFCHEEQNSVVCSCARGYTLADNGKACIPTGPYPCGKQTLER
# Coagulation factor X, sequence (P00742 235-488 limits assumed): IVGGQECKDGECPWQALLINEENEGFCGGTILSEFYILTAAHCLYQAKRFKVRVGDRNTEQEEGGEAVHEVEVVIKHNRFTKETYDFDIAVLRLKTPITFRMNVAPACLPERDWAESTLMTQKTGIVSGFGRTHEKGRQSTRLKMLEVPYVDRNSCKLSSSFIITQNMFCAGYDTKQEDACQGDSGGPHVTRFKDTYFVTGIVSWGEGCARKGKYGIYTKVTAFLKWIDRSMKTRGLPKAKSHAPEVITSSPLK
# Tissue-type plasminogen activator, sequence (P00750 whole entry): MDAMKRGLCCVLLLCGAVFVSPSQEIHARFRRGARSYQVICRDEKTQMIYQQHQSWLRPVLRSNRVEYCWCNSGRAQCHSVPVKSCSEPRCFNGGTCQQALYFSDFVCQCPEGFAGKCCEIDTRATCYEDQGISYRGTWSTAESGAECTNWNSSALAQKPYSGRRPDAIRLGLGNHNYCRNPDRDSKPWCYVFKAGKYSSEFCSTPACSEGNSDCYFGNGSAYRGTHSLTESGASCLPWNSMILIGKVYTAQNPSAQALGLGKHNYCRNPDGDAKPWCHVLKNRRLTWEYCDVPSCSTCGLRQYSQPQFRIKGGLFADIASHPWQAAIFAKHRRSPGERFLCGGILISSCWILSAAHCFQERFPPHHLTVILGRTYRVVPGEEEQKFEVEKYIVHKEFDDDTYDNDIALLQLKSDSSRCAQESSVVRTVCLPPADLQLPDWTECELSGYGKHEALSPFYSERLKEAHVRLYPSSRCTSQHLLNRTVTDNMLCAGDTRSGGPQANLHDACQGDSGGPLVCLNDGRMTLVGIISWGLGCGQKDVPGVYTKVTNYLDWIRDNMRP
# Plasminogen, sequence (P00747 97-580 limits assumed): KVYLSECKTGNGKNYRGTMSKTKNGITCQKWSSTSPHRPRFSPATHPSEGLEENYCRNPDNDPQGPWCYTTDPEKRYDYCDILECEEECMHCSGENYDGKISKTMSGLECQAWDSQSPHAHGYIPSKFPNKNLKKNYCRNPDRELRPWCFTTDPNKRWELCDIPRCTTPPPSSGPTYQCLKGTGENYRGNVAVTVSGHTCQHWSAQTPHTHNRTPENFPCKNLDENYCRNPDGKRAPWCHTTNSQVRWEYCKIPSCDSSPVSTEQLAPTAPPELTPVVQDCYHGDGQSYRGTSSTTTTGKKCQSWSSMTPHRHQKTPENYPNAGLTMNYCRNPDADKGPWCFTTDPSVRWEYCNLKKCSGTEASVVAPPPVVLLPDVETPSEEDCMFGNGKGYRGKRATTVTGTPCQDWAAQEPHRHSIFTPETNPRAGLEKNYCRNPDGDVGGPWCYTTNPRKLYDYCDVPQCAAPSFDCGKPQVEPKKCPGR
# Plasminogen, sequence (P00747 581-810 limits assumed): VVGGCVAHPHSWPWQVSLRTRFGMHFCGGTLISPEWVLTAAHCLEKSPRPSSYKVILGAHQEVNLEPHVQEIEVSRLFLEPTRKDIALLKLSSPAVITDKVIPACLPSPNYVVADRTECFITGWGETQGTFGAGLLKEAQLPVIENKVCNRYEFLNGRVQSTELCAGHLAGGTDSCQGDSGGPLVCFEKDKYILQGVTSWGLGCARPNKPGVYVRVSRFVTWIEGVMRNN
SMILES,IC50 [1],concentration at 10 h [2],AUC(0-t) at 10 h [3],concentration at 2 h [4],concentration at 4 h [5],concentration at 1 h [6],also measured
NC1CCN(C(=O)CCS(=O)(=O)c2ccc3cc(Cl)ccc3c2)CC1,> 5 µM,–,–,–,–,–,–
Cc1ncc2n1C(=O)N(C1CCN(C(=O)CCS(=O)(=O)c3ccc4cc(Cl)ccc4c3)CC1)C2,–,9.9 ng/mL,583 ng·h/mL,132 ng/mL,65.9 ng/mL,92.8 ng/mL,–
Cc1ncc2n1C(=O)N(C1CCN(C(=O)C(=O)CS(=O)(=O)c3ccc4cc(Cl)ccc4c3)CC1)C2,0.93 µM,–,–,–,–,–,–
O=C(O)CCS(=O)(=O)c1ccc2cc(Cl)ccc2c1,> 5 µM,–,–,–,–,–,–
O=C(CCS(=O)(=O)c1ccc2cc(Cl)ccc2c1)N1CCC(N2Cc3cnc(CO)n3C2=O)CC1,–,–,107 ng·h/mL,25 ng/mL,13.3 ng/mL,16.6 ng/mL,Ki [7]: > 60 µM; Cmax [8]: 60.1 ng/mL; clearance [9]: 11.9 mL/min/kg; bioavailability [10]: 32.3%; Vd [11]: 0.588 L/kg; Ki [12]: > 60 µM; Ki [13]: > 60 µM; AUC [14]: 470 ng·h/mL; MRT [15]: 7.56 h; Ki [16]: 7.8 µM
O=S(O)c1ccc2cc(Cl)ccc2c1,> 5 µM,–,–,–,–,–,–

# The next lines start with results.
IC50 [1],concentration at 10 h [2],AUC(0-t) at 10 h [3],concentration at 2 h [4],concentration at 4 h [5],concentration at 1 h [6],SMILES,also measured
–,3.6 ng/mL,54.6 ng·h/mL,4.4 ng/mL,91 ng/mL,0.8 ng/mL,Cc1ncc2n1C(=O)N(C1CCN(C(=O)[C@@H](O)CS(=O)(=O)c3ccc4cc(Cl)ccc4c3)CC1)C2,–
–,1.8 ng/mL,44.2 ng·h/mL,6.8 ng/mL,6.5 ng/mL,2.7 ng/mL,Cc1ncc2n1C(=O)N(C1CCN(C(=O)[C@H](O)CS(=O)(=O)c3ccc4cc(Cl)ccc4c3)CC1)C2,Ki [7]: > 60 µM; Cmax [8]: 30.5 ng/mL; clearance [9]: 14.2 mL/min/kg; bioavailability [10]: 25.4%; Vd [11]: 0.719 L/kg; Ki [12]: > 60 µM; Ki [13]: > 60 µM; AUC [14]: 307 ng·h/mL; MRT [15]: 7.05 h; Ki [16]: 1.9 µM
